Experimental data reported in patent US4868177A, “1,2,3,4-tetrahydro-1,9-acridinediamines, pharmaceutical compositions and use” (priority 1988, dated 1989).
Where a name gives a salt, the structure may show the parent alone.

What follows are compounds tested against acetylcholinesterase (Homo sapiens, UniProt P22303) (assay: Cholinesterase Inhibition Assay (photometric method of Ellman et al.)). Details: not given.
Format: biochemical

acetylcholinesterase, sequence (P22303 32-614): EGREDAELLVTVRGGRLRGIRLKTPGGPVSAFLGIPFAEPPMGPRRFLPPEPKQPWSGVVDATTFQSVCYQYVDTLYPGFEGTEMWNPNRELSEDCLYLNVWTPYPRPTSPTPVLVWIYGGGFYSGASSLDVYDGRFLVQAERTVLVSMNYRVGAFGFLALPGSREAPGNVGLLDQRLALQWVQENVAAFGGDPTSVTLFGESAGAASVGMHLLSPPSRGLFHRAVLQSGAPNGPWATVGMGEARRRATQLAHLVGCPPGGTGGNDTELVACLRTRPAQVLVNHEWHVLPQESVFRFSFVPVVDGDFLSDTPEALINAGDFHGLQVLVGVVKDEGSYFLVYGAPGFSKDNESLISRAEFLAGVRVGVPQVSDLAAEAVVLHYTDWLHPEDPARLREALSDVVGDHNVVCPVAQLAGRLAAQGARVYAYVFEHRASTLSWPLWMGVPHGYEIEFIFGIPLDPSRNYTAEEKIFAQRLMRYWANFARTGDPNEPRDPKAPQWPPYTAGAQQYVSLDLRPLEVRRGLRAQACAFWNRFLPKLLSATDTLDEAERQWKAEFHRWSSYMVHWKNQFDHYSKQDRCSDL

Compound | IC50 [µM]
Nc1c2c(nc3ccccc13)CCCC2N1CCCCC1 (stereo not drawn) [1-(1-Piperidinyl)-1,2,3,4-tetrahydro-9-acridinamine] | 8.4
Nc1c2c(nc3ccccc13)CCCC2N1CCCC1 (stereo not drawn) [1-(1-Pyrrolidinyl)-1,2,3,4-tetrahydro-9-acridinamine] | 18
CN1CCN(C2CCCc3nc4ccccc4c(N)c32)CC1 (stereo not drawn) [1-(4-Methyl-1-piperazinyl)-1,2,3,4-tetrahydro-9-acridinamine] | > 1000
Nc1c2c(nc3ccccc13)CCCC2N1CCOCC1 (stereo not drawn) [1-(4-Morpholinyl)-1,2,3,4-tetrahydro-9-acridinamine] | > 1000
Nc1c2c(nc3ccccc13)CCCC2N1CCN(c2ccccc2)CC1 (stereo not drawn) [1-(4-Phenyl-1-piperazinyl)-1,2,3,4-tetrahydro-9-acridinamine, maleate] | > 1000
[N-]=[N+]=NC1CCCc2nc3ccccc3c(N)c21 (stereo not drawn) [1-Azido-1,2,3,4-tetrahydro-9-acridinamine, maleate] | 12
Nc1c2c(nc3ccccc13)CCCC2NCc1ccccc1 (stereo not drawn) [N1 -Benzyl-1,2,3,4-tetrahydro-1,9-acridinediamine] | 20
CCCCNC1CCCc2nc3ccccc3c(N)c21 (stereo not drawn) [N1 -Butyl-1,2,3,4-tetrahydro-1,9-acridinediamine] | 49
CCNC1CCCc2nc3ccccc3c(N)c21 (stereo not drawn) [N1 -Ethyl-1,2,3,4-tetrahydrol, 9-acridinediamine, fumarate, hemi-hydrate] | 4.8
CCCNC1CCCc2nc3ccccc3c(N)c21 (stereo not drawn) [N1 -Propyl-1,2,3,4-tetrahydro-1,9-acridinediamine] | 13
Nc1c2c(nc3ccccc13)CCCC2NCCc1ccccc1 (stereo not drawn) [N1-(2-Phenylethyl)-1,2,3,4-tetrahydro-1,9-acridinediamine] | 19
COc1ccc(CNC2CCCc3nc4ccccc4c(N)c32)cc1OC (stereo not drawn) [N1-(3,4-Dimethoxybenzyl)-1,2,3,4-tetrahydro-1,9-acridinediamine] | 39

What follows are compounds tested on mice (assay: Dark Avoidance Assay (reversal of scopolamine induced memory deficit)). Details: 0.16 mg/kg body weight, retested 24 hours later.
Format: in vivo
Method: This utility can also be ascertained by determining the ability of these compounds to restore cholinergically deficient memory in the Dark Avoidance Assay. In this assay mice are tested for their ability to remember an unpleasant stimulus for a period of 24 hours. A mouse is placed in a chamber that contains a dark compartment; a strong incadescent light drives it to the dark compartment, where an electric shock is administered through metal plates on the floor. The animal is removed from the testing apparatus and tested again, 24 hours later, for the ability to remember the electric shock.
If scopolamine, an anticholinergic that is known to cause memory impairment, is administered before an animal's initial exposure to the test chamber, the animal re-enters the dark compartment shortly after being placed in the test chamber 24 hours later. This effect of scopolamine is blocked by an active test compound, resulting in a greater interval before re-entry into the dark compartment.
The results for an active compound are expressed as the percent of a group of animals in which the effect of scopolamine is blocked, as manifested by an increased interval between being placed in the test chamber and re-entering the dark compartment.

Compound | % of animals with scopolamine induced memory deficit reversal [%]
Nc1c2c(nc3ccccc13)CCCC2N1CCCCC1 (stereo not drawn) [1-(1-Piperidinyl)-1,2,3,4-tetrahydro-9-acridinamine] | 13

Same assay, conditions: 0.31 mg/kg body weight, retested 24 hours later

Compound | % of animals with scopolamine induced memory deficit reversal [%]
CCCNC1CCCc2nc3ccccc3c(N)c21 (stereo not drawn) [N1 -Propyl-1,2,3,4-tetrahydro-1,9-acridinediamine] | 20
CNC(=O)Oc1ccc2c(c1)[C@]1(C)CCN(C)[C@@H]1N2C [Physostigmine, reference compound] | 20
